Test results as given in patent US9790220B2, “Substituted cyclopentanes, tetrahydrofuranes and pyrrolidines as orexin receptor antagonists” (Takeda Pharmaceutical Company Limited, priority 2014, dated 2017).

Key:
human orexin receptor 1 = human orexin receptor 1 (Homo sapiens (Human), UniProt O43613); test: Orexin antagonist activity, intracellular calcium FLIPR assay (orexin receptor 1); assay type: cell-based; settings: RBL-2H3 cells stably expressing human orexin receptor 1; orexin-A at approx. 80% maximal response; 15 min preincubation; read-out: Human Orexin1R IC50
human orexin receptor 1, sequence (O43613 whole entry): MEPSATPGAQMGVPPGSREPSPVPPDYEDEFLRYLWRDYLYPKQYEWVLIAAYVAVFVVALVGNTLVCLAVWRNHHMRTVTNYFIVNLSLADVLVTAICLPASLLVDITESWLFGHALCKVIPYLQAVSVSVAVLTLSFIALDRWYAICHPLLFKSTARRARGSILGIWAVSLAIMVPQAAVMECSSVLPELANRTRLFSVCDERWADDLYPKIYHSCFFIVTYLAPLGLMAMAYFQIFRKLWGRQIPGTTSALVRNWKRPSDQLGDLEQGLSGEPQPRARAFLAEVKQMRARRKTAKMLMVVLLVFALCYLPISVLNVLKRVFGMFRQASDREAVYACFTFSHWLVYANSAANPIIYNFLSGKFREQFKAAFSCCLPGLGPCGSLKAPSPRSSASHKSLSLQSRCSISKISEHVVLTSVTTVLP
Protocol: (§1) Orexin antagonist activity was determined by measuring changes in intracellular calcium levels using a Ca^2+ sensitive fluorescent dye. The changes in fluorescent signal were monitored by Fluorescent Imaging Plate Reader (FLIPR™) technology available from Molecular Devices, LLC, U.S.A. Orexin mediated increases in intracellular Ca^2+ concentration were readily detected upon activation with orexin-A. Twenty-four hours prior to the assay, RBL-2H3 cells stably expressing either human orexin receptor 1 or human orexin receptor 2 were seeded in cell culture medium in black, clear-bottom 384-well plates (commercially available from Corning Inc., U.S.A.) and grown overnight at 37° C., 5% CO2. On the day of the assay, cell culture media was removed and cells were loaded with Calcium 5 Dye (commercially sold by Molecular Devices, LLC, U.S.A.) for 1 hour at 37° C., 5% CO2. Test compounds (at 10 point half log concentration response curves from 10 μM) were added to cells for 15 minutes prior to the addition of orexin-A to all wells, to achieve a final concentration that produces approximately an 80% maximal response. The IC50 values were determined from ten point concentration response curves. Curves were generated using the average of two wells for each data point. The results obtained are shown in the table below in which ‘NT’ denotes ‘Not Tested’.

human orexin receptor 2 = human orexin receptor 2 (Homo sapiens (Human), UniProt O43614); test: Orexin antagonist activity, intracellular calcium FLIPR assay (orexin receptor 2); assay type: cell-based; settings: RBL-2H3 cells stably expressing human orexin receptor 2; orexin-A at approx. 80% maximal response; 15 min preincubation; read-out: Human Orexin2R IC50
human orexin receptor 2, sequence (O43614 whole entry): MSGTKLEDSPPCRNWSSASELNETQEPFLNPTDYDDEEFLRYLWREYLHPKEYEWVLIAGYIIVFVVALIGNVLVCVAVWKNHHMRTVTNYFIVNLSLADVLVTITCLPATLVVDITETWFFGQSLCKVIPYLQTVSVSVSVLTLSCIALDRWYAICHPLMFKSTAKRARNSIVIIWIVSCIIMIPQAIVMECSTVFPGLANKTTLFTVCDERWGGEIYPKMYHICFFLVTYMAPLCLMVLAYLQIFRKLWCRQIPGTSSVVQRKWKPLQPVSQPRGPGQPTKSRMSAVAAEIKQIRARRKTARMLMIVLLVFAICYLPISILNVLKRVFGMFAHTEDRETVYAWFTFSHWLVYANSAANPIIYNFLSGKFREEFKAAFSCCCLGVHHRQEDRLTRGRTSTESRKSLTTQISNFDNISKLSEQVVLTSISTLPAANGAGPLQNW
Protocol: as §1

SMILES | IC50 (human orexin receptor 1) [nM] | IC50 (human orexin receptor 2) [nM]
COc1cccnc1C(=O)N(C)[C@H]1CCC[C@@H]1Nc1nc2ccc(F)cc2s1 [Example 5, N-[(1S,2S)-2-[(6-Fluoro-1,3-benzothiazol-2-yl)amino]cyclopentyl]-3-methoxy-N-methylpyridine-2-carboxamide] | 14 | 2800
COc1cccnc1C(=O)N[C@H]1CCC[C@@H]1Nc1nc2ccc(F)cc2o1 [Example 7, N-[(1S,2S)-2-[(6-Fluoro-1,3-benzoxazol-2-yl)amino]cyclopentyl]-3-methoxypyridine-2-carboxamide] | 540 | > 10000
COc1ccc(C)nc1C(=O)N[C@H]1CCC[C@@H]1Nc1nc2ccc(F)cc2s1 [Example 9, N-[(1S,2S)-2-[(6-Fluoro-1,3-benzothiazol-2-yl)amino]cyclopentyl]-3-methoxy-6-methylpyridine-2-carboxamide] | 84 | > 10000
COc1cccnc1C(=O)N[C@H]1CCC[C@@H]1Nc1cnc2ccccc2n1 [Example 16, 3-Methoxy-N-[(1S,2S)-2-[(quinoxalin-2-yl)amino]cyclopentyl]pyridine-2-carboxamide] | 630 | –
COc1ccc(C(F)(F)F)nc1C(=O)N[C@H]1CCC[C@@H]1Nc1nc2ccc(F)cc2s1 [Example 17, N-[(1S,2S)-2-[(6-Fluoro-1,3-benzothiazol-2-yl)amino]cyclopentyl]-3-methoxy-6-(trifluoromethyl)pyridine-2-carboxamide] | 210 | 9600
O=C(N[C@H]1CCC[C@@H]1Nc1nc2ccc(Cl)cc2s1)c1ncccc1-n1nccn1 [Example 21, N-[(1S,2S)-2-[(6-Chloro-1,3-benzothiazol-2-yl)amino]cyclopentyl]-3-(2H-1,2,3-triazol-2-yl)pyridine-2-carboxamide] | 24 | > 10000
O=C(N[C@H]1CCC[C@@H]1Nc1nc2ccc(Cl)cc2s1)c1ncccc1OC(F)F [Example 22, N-[(1S,2S)-2-[(6-Chloro-1,3-benzothiazol-2-yl)amino]cyclopentyl]-3-(difluoromethoxy)pyridine-2-carboxamide] | 300 | > 10000
O=C(N[C@H]1CCC[C@@H]1Nc1nc2ccc(F)cc2o1)c1ncccc1OC(F)F [Example 23, 3-(Difluoromethoxy)-N-[(1S,2S)-2-[(6-fluoro-1,3-benzoxazol-2-yl)amino]cyclopentyl]pyridine-2-carboxamide] | 290 | > 10000
O=C(N[C@H]1CCC[C@@H]1Nc1nc2ccc(Cl)cc2o1)c1ncccc1OC(F)F [Example 25, N-[(1S,2S)-2-[(6-Chloro-1,3-benzoxazol-2-yl)amino]cyclopentyl]-3-(difluoromethoxy)pyridine-2-carboxamide] | 660 | > 10000
CCOc1ccc(C)nc1C(=O)NC1CCCC1Cc1ccc2ccccc2n1 (stereo not drawn) [Example 26, 3-Ethoxy-6-methyl-N-[2-(quinolin-2-ylmethyl)cyclopentyl]pyridine-2-carboxamide] | 910 | –
CCOc1ccc(C)nc1C(=O)NC1CCCC1Cc1ccc2ccccc2n1 (stereo not drawn) [Example 27, 3-Ethoxy-6-methyl-N-[2-(quinolin-2-ylmethyl)cyclopentyl]pyridine-2-carboxamide] | 71 | 6000

Next, values leading:

IC50 (human orexin receptor 1) [nM] | IC50 (human orexin receptor 2) [nM] | SMILES
43 | > 10000 | O=C(N[C@H]1CCC[C@@H]1Nc1nc2ccc(F)cc2s1)c1ncccc1Br [Example 1, 3-Bromo-N-[(1S,2S)-2-[(6-fluoro-1,3-benzothiazol-2-yl)amino]cyclopentyl]-pyridine-2-carboxamide]
170 | > 10000 | COc1cccnc1C(=O)N[C@H]1CCC[C@@H]1Nc1nc2ccc(F)cc2s1 [Example 3, N-[(1S,2S)-2-[(6-Fluoro-1,3-benzothiazol-2-yl)amino]cyclopentyl]-3-methoxypyridine-2-carboxamide]
8.6 | > 10000 | O=C(N[C@H]1CCC[C@@H]1Nc1nc2ccc(F)cc2s1)c1ncccc1-n1nccn1 [Example 6, N-[(1S,2S)-2-[(6-Fluoro-1,3-benzothiazol-2-yl)amino]cyclopentyl]-3-(2H-1,2,3-triazol-2-yl)pyridine-2-carboxamide]
34 | 3300 | CC(C)Oc1cccnc1C(=O)N[C@H]1CCC[C@@H]1Nc1nc2ccc(F)cc2s1 [Example 8, N-[(1S,2S)-2-[(6-Fluoro-1,3-benzothiazol-2-yl)amino]cyclopentyl]-3-(propan-2-yloxy)pyridine-2-carboxamide]
21 | > 10000 | O=C(N[C@H]1CCC[C@@H]1Nc1nc2ccc(F)cc2s1)c1ncccc1-n1cccn1 [Example 10, N-[(1S,2S)-2-[(6-Fluoro-1,3-benzothiazol-2-yl)amino]cyclopentyl]-3-(1H-pyrazol-1-yl)pyridine-2-carboxamide]
330 | > 10000 | O=C(N[C@H]1CCC[C@@H]1Nc1nc2ccc(F)cc2s1)c1ncccc1F [Example 11, 3-Fluoro-N-[(1S,2S)-2-[(6-fluoro-1,3-benzothiazol-2-yl)amino]cyclopentyl]pyridine-2-carboxamide]
42 | > 10000 | O=C(N[C@H]1CCC[C@@H]1Nc1nc2ccc(F)cc2s1)c1ncccc1N1CCCCC1 [Example 12, N-[(1S,2S)-2-[(6-Fluoro-1,3-benzothiazol-2-yl)amino]cyclopentyl]-3-(piperidin-1-yl)pyridine-2-carboxamide]
69 | > 10000 | O=C(N[C@H]1CCC[C@@H]1Nc1nc2ccc(F)cc2s1)c1ncccc1N1CCC1 [Example 13, 3-(Azetidin-1-yl)-N-[(1S,2S)-2-[(6-fluoro-1,3-benzothiazol-2-yl)amino]cyclopentyl]pyridine-2-carboxamide]
170 | > 10000 | O=C(N[C@H]1CCC[C@@H]1Nc1nc2ccc(F)cc2s1)c1ncccc1N1CCCC1 [Example 14, N-[(1S,2S)-2-[(6-Fluoro-1,3-benzothiazol-2-yl)amino]cyclopentyl]-3-(pyrrolidin-1-yl)pyridine-2-carboxamide]
150 | > 10000 | COC1CN(c2cccnc2C(=O)N[C@H]2CCC[C@@H]2Nc2nc3ccc(F)cc3s2)C1 [Example 15, N-[(1S,2S)-2-[(6-Fluoro-1,3-benzothiazol-2-yl)amino]cyclopentyl]-3-(3-methoxyazetidin-1-yl)pyridine-2-carboxamide]
41 | 8800 | CCOc1cccnc1C(=O)N[C@H]1CCC[C@@H]1Nc1nc2ccc(F)cc2s1 [Example 18, 3-Ethoxy-N-[(1S,2S)-2[(6-fluoro-1,3-benzothiazol-2-yl)amino]cyclopentyl]pyridine-2-carboxamide]
33 | 3600 | O=C(N[C@H]1CCC[C@@H]1Nc1nc2ccc(F)cc2s1)c1ncccc1OC(F)(F)F [Example 19, N-[(1S,2S)-2-[(6-Fluoro-1,3-benzothiazol-2-yl)amino]cyclopentyl]-3-(trifluoromethoxy)pyridine-2-carboxamide]
100 | > 10000 | O=C(N[C@H]1CCC[C@@H]1Nc1nc2ccc(F)cc2s1)c1ncccc1OC(F)F [Example 20, 3-(Difluoromethoxy)-N-[(1S,2S)-2-[(6-fluoro-1,3-benzothiazol-2-yl)amino]cyclopentyl]pyridine-2-carboxamide]
86 | > 10000 | O=C(N[C@H]1CCC[C@@H]1Nc1nc2ccc(F)cc2s1)c1ncccc1-n1ccnn1 [Example 24, N-[(1S,2S)-2-[(6-Fluoro-1,3-benzothiazol-2-yl)amino]cyclopentyl]-3-(1H-1,2,3-triazol-1-yl)pyridine-2-carboxamide]
